Where two headings read alike, the source gives them in different places.
Columns and labels:
SgK085 (MYLK3) = biological target: T1, SgK085 (MYLK3) (Homo sapiens, UniProt Q32MK0)
T1 sequence (Q32MK0 1-819): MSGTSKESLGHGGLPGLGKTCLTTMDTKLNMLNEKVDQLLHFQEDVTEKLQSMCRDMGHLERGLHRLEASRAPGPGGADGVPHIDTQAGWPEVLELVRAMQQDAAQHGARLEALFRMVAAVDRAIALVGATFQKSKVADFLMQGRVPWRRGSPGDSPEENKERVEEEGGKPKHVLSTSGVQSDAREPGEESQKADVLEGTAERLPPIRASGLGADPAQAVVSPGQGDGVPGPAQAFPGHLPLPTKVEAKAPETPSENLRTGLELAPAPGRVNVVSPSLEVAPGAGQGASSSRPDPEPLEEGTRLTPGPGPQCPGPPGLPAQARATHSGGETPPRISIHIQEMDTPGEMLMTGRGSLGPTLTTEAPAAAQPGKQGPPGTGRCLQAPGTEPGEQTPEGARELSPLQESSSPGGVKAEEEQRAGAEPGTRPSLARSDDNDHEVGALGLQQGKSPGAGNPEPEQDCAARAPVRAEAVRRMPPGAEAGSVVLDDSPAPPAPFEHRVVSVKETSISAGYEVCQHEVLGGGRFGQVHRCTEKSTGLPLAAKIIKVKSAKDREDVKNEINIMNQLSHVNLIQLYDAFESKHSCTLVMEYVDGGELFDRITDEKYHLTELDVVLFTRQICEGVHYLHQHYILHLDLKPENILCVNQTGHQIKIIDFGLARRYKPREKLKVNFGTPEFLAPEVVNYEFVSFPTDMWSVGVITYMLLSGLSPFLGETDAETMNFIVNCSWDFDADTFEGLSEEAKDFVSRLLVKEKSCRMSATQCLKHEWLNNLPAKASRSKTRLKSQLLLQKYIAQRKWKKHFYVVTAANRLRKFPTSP

[1] = biological target: T2, hydroxyacyl Coenzyme A dehydrogenase, type II isoform 1 (Homo sapiens, UniProt Q99714); test: binding to immobilized V16742 (IVA1/IVA2, HeLa lysate, MS)
T2 construct: endogenous in cells; host or cells: HeLa S3
T2 sequence (Q99714 1-261): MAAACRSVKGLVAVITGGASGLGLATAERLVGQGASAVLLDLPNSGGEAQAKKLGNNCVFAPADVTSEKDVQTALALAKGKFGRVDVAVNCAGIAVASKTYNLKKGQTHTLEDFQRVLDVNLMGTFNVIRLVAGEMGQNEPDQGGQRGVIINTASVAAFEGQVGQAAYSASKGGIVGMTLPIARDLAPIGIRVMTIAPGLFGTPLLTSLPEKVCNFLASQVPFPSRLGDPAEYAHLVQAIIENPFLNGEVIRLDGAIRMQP

Compound | rAVERAGE (10 nM/0 nM Gef.) (SgK085 (MYLK3)) | rAVERAGE (100 nM/0 nM Gef.) (SgK085 (MYLK3)) | rAVERAGE (1000 nM/0 nM Gef.) (SgK085 (MYLK3)) | rAVERAGE (10000 nM/0 nM Gef.) (SgK085 (MYLK3)) | Percent bound at various 16742 conc ([1]; Experiment 1, 1.87 μM 16742) | Percent bound at various 16742 conc ([1]; Experiment 1, 8.74 μM 16742) | Percent bound at various 16742 conc ([1]; Experiment 1, 52 μM 16742) | Kd ([1]; Experiment 1, read-out: Kd) | Percent bound at various 16742 conc ([1]; Experiment 2, 1.87 μM 16742) | Percent bound at various 16742 conc ([1]; Experiment 2, 8.74 μM 16742) | Percent bound at various 16742 conc ([1]; Experiment 2, 52 μM 16742) | Kd ([1]; Experiment 2, read-out: Kd) | Kd ([1]; average of two experiments, read-out: Kd Avg)
COc1cc2ncnc(Nc3ccc(F)c(Cl)c3)c2cc1OCCCN1CCOCC1 [gefitinib] | 0.97 | 1.01 | 0.98 | 0.53 |  |  |  |  |  |  |  |  | 
CC(C)n1c(=O)ccc2cnc(Nc3ccc(OCCN)cc3)nc21 [V16742] |  |  |  |  | 4.41% | 4.37% | 62.08% | 42.7 µM | 8.75% | 10.79% | 41.03% | 72.8 µM | 57.7 µM

From patent US8959984B2, “Proteome-wide quantification of small molecule binding to cellular target proteins” (priority 2007, dated 2015)
